Measurements as given in patent US10123985B2, “Therapeutic strategies for treating mitochondrial disorders” (Whitehead Institute for Biomedical Research, priority 2015, dated 2018).
Entries after “also recorded” stand apart in the source; their conditions may differ.

Assays:
143B CytB cells = assay: Purine nucleotide extraction and LC-MS analysis; type: cell-based
Description: 143B CytB cells were seeded at 400,000 cells/well in 6 well dishes overnight. The following day, cells were washed 2 times in PBS and media was changed to proliferation assay media with or without the indicated treatments. After 15 hours polar metabolites were extracted from cells using 250 μL of ice cold 80% methanol. After scraping the cells, 250 μL of chloroform was added before vortexing for 10 min at 4° C. and centrifugation for 10 min at 4° C. at 16,000 g, 40 μL of the top, water-methanol, layer was transferred into a LC-MS tube and samples were analyzed. A Dionex UltiMate 3000 ultra-high performance liquid chromatography system connected to a Q Exactive benchtop Orbitrap mass spectrometer, equipped with an Ion Max source and a HESI II probe (Thermo Fisher Scientific) was used to quantify metabolites. Samples were separated by chromatography by injecting 10 μL of sample on a SeQuant ZIC-pHILIC Polymeric column (2.1×150 mm 5 μM, EMD Millipore). Flow rate was set to 150 μL/min, temperatures were set to 25° C. for column compartment and 4° C. for autosampler sample tray. Mobile Phase A consisted of 20 mM ammonium carbonate, 0.1% ammonium hydroxide. Mobile Phase B was 100% acetonitrile. The mobile phase gradient (% B) was set in the following protocol: 0-20 min.: linear gradient from 80% to 20% B; 20-20.5 min.: linear gradient from 20% to 80% B; 20.5-28 min.: hold at 80% B. Mobile phase was introduced into the ionization source set to the following parameters: sheath gas=40, auxiliary gas=15, sweep gas=1, spray voltage=−3.1 kV, capillary temperature=275° C., S-lens RF level=40, probe temperature=350° C. Metabolites were monitored using full scan in negative mode in the range of 285-700 m/z, with the resolution set at 140,000, the AGC target at 106, and the maximum injection time at 250 msec. Relative quantitation of metabolites was performed with XCalibur QuanBrowser 2.2 (Thermo Fisher Scientific) using a 5 ppm mass tolerance and referencing an in-house retention time library of chemical standards.

[1] = tested on: 143B WT cybrid and 143B CytB cells; assay: Mitochondrial oxygen consumption (Seahorse XF24), cybrid cells; type: cell-based; settings: presence or absence of the substance
Description: Oxygen consumption rates were determined on a Seahorse Bioscience Extracellular Flux Analyzer (XF24). Cells were plated in Seahorse Bioscience 24 well plates at 6E4 cells per well in 100 μL complete DMEM, allowed to attach for 1 hour, and 500 μl complete DMEM was added before overnight incubation. The following day cells were washed 2 times in assay media: DMEM without phenol red or pyruvate containing 0.5% dialyzed FBS and 0.1 mg/mL uridine at pH 7.4 and incubated in 500 μL of the same media for the assay. Oxygen consumption measurements were compared either, between basal measurements and following injection of the compound (AKB, rotenone, antimycin), or between wells cultured overnight in their treatment conditions (aspartate, oligomycin, FCCP). The latter conditions were used due to solubility constraints (aspartate) or kinetic constraints of the compound (oligomycin). These measurements were then subtracted from oxygen consumption measurements following addition of high dose rotenone and antimycin treatment (2 μM each) to determine the mitochondria specific oxygen consumption rate. Following measurements, the number of cells in the wells was counted, averaged for each treatment condition, and the mitochondrial oxygen consumption rates were normalized to 1E5 cells.

143B cells = assay: Mitochondrial oxygen consumption (Seahorse XF24), cells treated with respiration inhibitors; type: cell-based; settings: ETC inhibitors plus AKB
Description: Oxygen consumption rates were determined on a Seahorse Bioscience Extracellular Flux Analyzer (XF24). Cells were plated in Seahorse Bioscience 24 well plates at 6E4 cells per well in 100 μL complete DMEM, allowed to attach for 1 hour, and 500 μl complete DMEM was added before overnight incubation. The following day cells were washed 2 times in assay media: DMEM without phenol red or pyruvate containing 0.5% dialyzed FBS and 0.1 mg/mL uridine at pH 7.4 and incubated in 500 μL of the same media for the assay.

Jurkat cells [2] = assay: Proliferation assay (Cell Titer Glo, 5 days) of wild type and knock-out Jurkat cells; type: cell-based, human; settings: 5 days
Description: sgRNAs (oligonucleotide sequences are indicated above) were cloned into lentiCRISPR-v1 linearized with BsmBI by Gibson Assembly (NEB). sgRNA expressing vector along with lentiviral packaging vectors Delta-VPR and CMV VSVG were transfected into HEK-293T cells using the XTremeGene 9 transfection reagent (Roche). Similarly, for overexpression cell lines, cDNA vectors along with retroviral packaging vectors gag-pol and CMV VSV-G were transfected into HEK-293T cells. Media was changed 24 hours after transfection.

Jurkat cells [3] = assay: Metabolite profiling (LC/MS) of Jurkat cells; type: cell-based, human; settings: pyruvate 1 mM
Description: LC/MS analyses were conducted on a QExactive benchtop orbitrap mass spectrometer equipped with an Ion Max source and a HESI II probe, which was coupled to a Dionex UltiMate 3000 UPLC system (Thermo Fisher Scientific, San Jose, Calif.). External mass calibration was performed using the standard calibration mixture every 7 days.
Polar metabolites were extracted using 1 ml of ice-cold 80% methanol with 10 ng/ml valine-d8 as an internal standard. After a 10 min vortex and centrifugation for 10 min at 4° C. at 10,000 g, samples were dried under nitrogen gas. Dried samples were stored at −80° C. and then resuspended in 100 μL water; 1 μl of each sample was injected onto a ZIC-pHILIC 2.1×150 mm (5 μm particle size) column (EMD Millipore). Buffer A was 20 mM ammonium carbonate, 0.1% ammonium hydroxide; buffer B was acetonitrile. The chromatographic gradient was run at a flow rate of 0.150 ml/min as follows: 0-20 min.: linear gradient from 80% to 20% B; 20-20.5 min.: linear gradient from 20% to 80% B; 20.5-28 min.: hold at 80% B. The mass spectrometer was operated in fullscan, polarity switching mode with the spray voltage set to 3.0 kV, the heated capillary held at 275° C., and the HESI probe held at 350° C. The sheath gas flow was set to 40 units, the auxiliary gas flow was set to 15 units, and the sweep gas flow was set to 1 unit. The MS data acquisition was performed in a range of 70-1000 m/z, with the resolution set at 70,000, the AGC target at 106, and the maximum injection time at 80 msec. Relative quantitation of polar metabolites was performed with XCalibur QuanBrowser 2.2 (Thermo Fisher Scientific) using a 5 ppm mass tolerance and referencing an in-house library of chemical standards.

[4] = cells without AKB supplementation compared to AKB replete cells
[5] = pyruvate (1 mM), phenformin, piericidin, antimycin

| SMILES | IMP level (143B CytB cells; cells cultured without AKB compared to AKB replete cells) | AMP level (143B CytB cells; [4]) | GMP level (143B CytB cells; [4]) | AMP/IMP ratio (143B CytB cells; upon AKB withdrawal) | GMP/IMP ratio (143B CytB cells; upon AKB withdrawal) | Mitochondrial oxygen consumption rate [1] | O2 consumption (143B cells) | Proliferation of phenformin-treated wild-type Jurkat cells with aspartate (Jurkat cells [2]; aspartate (10 mM) in RPMI) | Viability and proliferation of phenformin-treated GOT1-null Jurkat cells with aspartate (Jurkat cells [2]; aspartate (10 mM) in RPMI) | AMP level (143B CytB cells; 143B CytB cells with aspartate) | GMP level (143B CytB cells; 143B CytB cells with aspartate) | IMP level (143B CytB cells; 143B CytB cells with aspartate) | Proliferation of ETC inhibitor-treated MDH1-null Jurkat cells with pyruvate (Jurkat cells [2]; pyruvate (1 mM)) | Proliferation of ETC inhibitor-treated PC-null Jurkat cells with pyruvate (Jurkat cells [2]; pyruvate (1 mM), phenformin (10 μM), antimycin (1 μM) or piericidin (0.5 μM)) | Proliferation of ETC inhibitor-treated wild type Jurkat cells with pyruvate (Jurkat cells [2]; [5]) | Viability and proliferation of ETC inhibitor-treated GOT1-null Jurkat cells with pyruvate (Jurkat cells [2]; [5]) | Aspartate synthesis with pyruvate (Jurkat cells [3]; MDH1-null Jurkat cells treated with ETC inhibitors) | Aspartate levels with pyruvate (Jurkat cells [3]; phenformin-treated (10 μM, 24 hours) GOT1-null Jurkat cells) | Aspartate levels with pyruvate (Jurkat cells [3]; phenformin-treated (10 μM, 24 hours) wild type Jurkat cells) |
| --- | --- | --- | --- | --- | --- | --- | --- | --- | --- | --- | --- | --- | --- | --- | --- | --- | --- | --- | --- |
| CCC(=O)C(=O)O [AKB, α-ketobutyrate] | increased levels | decreased | decreased | dramatically decrease | dramatically decrease | does not alter oxygen consumption | no effect on O2 consumption |  |  |  |  |  |  |  |  |  |  |  |  |
| N[C@@H](CC(=O)O)C(=O)O [aspartate] |  |  |  |  |  | neither increased mitochondrial oxygen consumption |  | partially reversed the anti-proliferative effects of phenformin on wild-type cells | rescues death of GOT1-null cells upon ETC inhibition; also recorded: prevented the phenformin induced death of GOT1-null cells and even enabled these cells to proliferate in the presence of the drug | restores AMP pools | not restored; also recorded: actually lower | relieves the accumulation of IMP |  |  |  |  |  |  |  |
| CC(=O)C(=O)O [pyruvate] |  |  |  |  |  |  |  |  |  |  |  |  | did not stimulate aspartate synthesis or rescue proliferation; also recorded: does not rescue the proliferation of phenformin-treated MDH1 null cells | still prevented the anti-proliferative effects of ETC inhibitors; also recorded: can rescue the death of PC-null cells induced by ETC inhibition | almost completely blocked the anti-proliferative effects of several ETC inhibitors | cannot rescue death of GOT1-null cells induced by ETC inhibitors; also recorded: no beneficial effect on the GOT1-null cells | did not stimulate aspartate synthesis; also recorded: depends on MDH1 | no effect on aspartate | increases cellular aspartate levels in a GOT1-dependent manner; also recorded: restored aspartate levels to normal in phenformin-treated wild type cells |
